{
  "source": "patent US20040266623A1",
  "about": "“SYNERGISTIC QUINCLORAC HERBICIDAL COMPOSITIONS” (priority 2003, published 2004)",
  "system": "white clover",
  "test": "Greenhouse pot test, postemergent spray, visual control rating converted to percent control",
  "format": "in vivo",
  "method_in_brief": "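Greenhouse-grown pots were sprayed postemergence at 43.46 gallons spray solution/acre. Control was scored visually on a 1–9 scale (1 = no control, 9 = plant death) at 24, 48 and 72 HAT and at 7, 14 and 21 DAT, then converted to percent control. Expected combination responses were calculated by Colby's formulas.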",
  "data": [
    {"smiles": "O=C(O)c1c(Cl)ccc2cc(Cl)cnc12", "note": "[Quinclorac, 3,7-dichloro-8-quinolinecarboxylic acid]", "values": [
      {"measurement": "% Control Clover", "setting": "Test 1, 7 DAT, 0.18 lbs/A", "value": 33.3, "unit": "%"},
      {"measurement": "Control (1-9) Clover", "setting": "Test 1, 7 DAT, 0.18 lbs/A", "value": 3},
      {"measurement": "% Control Clover", "setting": "Test 1, 7 DAT, 0.375 lbs/A", "value": 33.3, "unit": "%"},
      {"measurement": "Control (1-9) Clover", "setting": "Test 1, 7 DAT, 0.375 lbs/A", "value": 3},
      {"measurement": "% Control Clover", "setting": "Test 1, 7 DAT, 0.75 lbs/A", "value": 33.3, "unit": "%"},
      {"measurement": "Control (1-9) Clover", "setting": "Test 1, 7 DAT, 0.75 lbs/A", "value": 3},
      {"measurement": "% Control Clover", "setting": "Test 1, 14 DAT, 0.18 lbs/A", "value": 100.0, "unit": "%"},
      {"measurement": "Control (1-9) Clover", "setting": "Test 1, 14 DAT, 0.18 lbs/A", "value": 9},
      {"measurement": "% Control Clover", "setting": "Test 1, 14 DAT, 0.375 lbs/A", "value": 100.0, "unit": "%"},
      {"measurement": "Control (1-9) Clover", "setting": "Test 1, 14 DAT, 0.375 lbs/A", "value": 9},
      {"measurement": "% Control Clover", "setting": "Test 1, 14 DAT, 0.75 lbs/A", "value": 88.9, "unit": "%"},
      {"measurement": "Control (1-9) Clover", "setting": "Test 1, 14 DAT, 0.75 lbs/A", "value": 8},
      {"measurement": "% Control Clover", "setting": "Test 1, 24 HAT, 0.18 lbs/A", "value": 11.1, "unit": "%"},
      {"measurement": "Control (1-9) Clover", "setting": "Test 1, 24 HAT, 0.18 lbs/A", "value": 1},
      {"measurement": "% Control Clover", "setting": "Test 1, 24 HAT, 0.375 lbs/A", "value": 11.1, "unit": "%"},
      {"measurement": "Control (1-9) Clover", "setting": "Test 1, 24 HAT, 0.375 lbs/A", "value": 1},
      {"measurement": "% Control Clover", "setting": "Test 1, 24 HAT, 0.75 lbs/A", "value": 11.1, "unit": "%"},
      {"measurement": "Control (1-9) Clover", "setting": "Test 1, 24 HAT, 0.75 lbs/A", "value": 1},
      {"measurement": "% Control Clover", "setting": "Test 1, 48 HAT, 0.18 lbs/A", "value": 22.2, "unit": "%"},
      {"measurement": "Control (1-9) Clover", "setting": "Test 1, 48 HAT, 0.18 lbs/A", "value": 2},
      {"measurement": "% Control Clover", "setting": "Test 1, 48 HAT, 0.375 lbs/A", "value": 33.3, "unit": "%"},
      {"measurement": "Control (1-9) Clover", "setting": "Test 1, 48 HAT, 0.375 lbs/A", "value": 3},
      {"measurement": "% Control Clover", "setting": "Test 1, 48 HAT, 0.75 lbs/A", "value": 33.3, "unit": "%"},
      {"measurement": "Control (1-9) Clover", "setting": "Test 1, 48 HAT, 0.75 lbs/A", "value": 3},
      {"measurement": "% Control Clover", "setting": "Test 2, 7 DAT, 0.18 lbs/A", "value": 66.7, "unit": "%"},
      {"measurement": "Control (1-9) Clover", "setting": "Test 2, 7 DAT, 0.18 lbs/A", "value": 6},
      {"measurement": "% Control Clover", "setting": "Test 2, 7 DAT, 0.375 lbs/A", "value": 77.8, "unit": "%"},
      {"measurement": "Control (1-9) Clover", "setting": "Test 2, 7 DAT, 0.375 lbs/A", "value": 7},
      {"measurement": "% Control Clover", "setting": "Test 2, 7 DAT, 0.75 lbs/A", "value": 77.8, "unit": "%"},
      {"measurement": "Control (1-9) Clover", "setting": "Test 2, 7 DAT, 0.75 lbs/A", "value": 7},
      {"measurement": "% Control Clover", "setting": "Test 2, 14 DAT, 0.18 lbs/A", "value": 100.0, "unit": "%"},
      {"measurement": "Control (1-9) Clover", "setting": "Test 2, 14 DAT, 0.18 lbs/A", "value": 9},
      {"measurement": "% Control Clover", "setting": "Test 2, 14 DAT, 0.375 lbs/A", "value": 100.0, "unit": "%"},
      {"measurement": "Control (1-9) Clover", "setting": "Test 2, 14 DAT, 0.375 lbs/A", "value": 9},
      {"measurement": "% Control Clover", "setting": "Test 2, 14 DAT, 0.75 lbs/A", "value": 100.0, "unit": "%"},
      {"measurement": "Control (1-9) Clover", "setting": "Test 2, 14 DAT, 0.75 lbs/A", "value": 9},
      {"measurement": "% Control Clover", "setting": "Test 2, 24 HAT, 0.18 lbs/A", "value": 22.2, "unit": "%"},
      {"measurement": "Control (1-9) Clover", "setting": "Test 2, 24 HAT, 0.18 lbs/A", "value": 2},
      {"measurement": "% Control Clover", "setting": "Test 2, 24 HAT, 0.375 lbs/A", "value": 22.2, "unit": "%"},
      {"measurement": "Control (1-9) Clover", "setting": "Test 2, 24 HAT, 0.375 lbs/A", "value": 2},
      {"measurement": "% Control Clover", "setting": "Test 2, 24 HAT, 0.75 lbs/A", "value": 22.2, "unit": "%"},
      {"measurement": "Control (1-9) Clover", "setting": "Test 2, 24 HAT, 0.75 lbs/A", "value": 2},
      {"measurement": "% Control Clover", "setting": "Test 2, 72 HAT, 0.18 lbs/A", "value": 33.3, "unit": "%"},
      {"measurement": "Control (1-9) Clover", "setting": "Test 2, 72 HAT, 0.18 lbs/A", "value": 3},
      {"measurement": "% Control Clover", "setting": "Test 2, 72 HAT, 0.375 lbs/A", "value": 33.3, "unit": "%"},
      {"measurement": "Control (1-9) Clover", "setting": "Test 2, 72 HAT, 0.375 lbs/A", "value": 3},
      {"measurement": "% Control Clover", "setting": "Test 2, 72 HAT, 0.75 lbs/A", "value": 33.3, "unit": "%"},
      {"measurement": "Control (1-9) Clover", "setting": "Test 2, 72 HAT, 0.75 lbs/A", "value": 3},
      {"measurement": "% Control Clover", "setting": "Test 4, 7 DAT, 0.18 lbs/A", "value": 33.3, "unit": "%"},
      {"measurement": "Control (1-9) Clover", "setting": "Test 4, 7 DAT, 0.18 lbs/A", "value": 3},
      {"measurement": "% Control Clover", "setting": "Test 4, 7 DAT, 0.375 lbs/A", "value": 44.4, "unit": "%"},
      {"measurement": "Control (1-9) Clover", "setting": "Test 4, 7 DAT, 0.375 lbs/A", "value": 4},
      {"measurement": "% Control Clover", "setting": "Test 4, 7 DAT, 0.75 lbs/A", "value": 33.3, "unit": "%"},
      {"measurement": "Control (1-9) Clover", "setting": "Test 4, 7 DAT, 0.75 lbs/A", "value": 3},
      {"measurement": "% Control Clover", "setting": "Test 4, 14 DAT, 0.18 lbs/A", "value": 33.3, "unit": "%"},
      {"measurement": "Control (1-9) Clover", "setting": "Test 4, 14 DAT, 0.18 lbs/A", "value": 3},
      {"measurement": "% Control Clover", "setting": "Test 4, 14 DAT, 0.375 lbs/A", "value": 55.6, "unit": "%"},
      {"measurement": "Control (1-9) Clover", "setting": "Test 4, 14 DAT, 0.375 lbs/A", "value": 5},
      {"measurement": "% Control Clover", "setting": "Test 4, 14 DAT, 0.75 lbs/A", "value": 44.4, "unit": "%"},
      {"measurement": "Control (1-9) Clover", "setting": "Test 4, 14 DAT, 0.75 lbs/A", "value": 4}
    ]}
  ]
}
